# Laboratory results: patent US20250313563A1, “GLYCOGEN SYNTHASE KINASE 3 INHIBITORS AND USES THEREOF” (The Broad Institute, Inc., priority 2022, published 2025)
# Like-named read-outs stand apart in the source and are kept apart here.
# Columns and labels:
# [1] = target: GSK3α (GST-full length GSK3α) (Homo sapiens (Human), UniProt P49840); assay: GSK3α TR-FRET kinase assay; format: biochemical
# Summary of the method: (§1)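 IC50s came from the normalized 665/615 TR-FRET ratio after Tb-anti-pSer641 antibody and streptavidin-d2 detection of phosphorylated biotin-glycogen synthase peptide (200 nM). ATP was 4 μM for GSK3α, 2 μM for GSK3b, or 1 mM; 1 nM enzyme, 100 min, ambient, pH 7.5, after 30-min compound preincubation.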
# [2] = target: GSK3b (GST-full length GSK3b) (Homo sapiens (Human), UniProt P49841); assay: GSK3b TR-FRET kinase assay; format: biochemical
# Summary of the method: as §1
# [3] = 1 nM GSK3α, 4 μM ATP, 30 minute preincubation, Table 16, read-out: GSK3-A TR-FRET BIOCHEMICAL (TR-FRET)
# [4] = 1 nM GSK3b, 2 μM ATP, 30 minute preincubation, Table 16, read-out: GSK3-B TR-FRET BIOCHEMICAL (TR-FRET)
# [5] = 1 nM GSK3α, 4 μM ATP, 30 minute preincubation, Table 16, read-out: GSK3-A TR-FRET BIOCHEMICAL (TR-FRET), IC50
# [6] = 1 nM GSK3b, 2 μM ATP, 30 minute preincubation, Table 16, read-out: GSK3-B TR-FRET BIOCHEMICAL (TR-FRET), IC50
# [7] = read-out: GSK3-A (TR-FRET 1 mM ATP), GMean, IC50, 1 mM ATP, geometric mean
# [8] = read-out: GSK3-B (TR-FRET 1 mM ATP), GMean, IC50, 1 mM ATP, geometric mean
# [9] = 1 nM GSK3α, 4 μM ATP, 30 minute preincubation, geometric mean, read-out: GSK3-A TR-FRET BIOCHEMICAL (TR-FRET), GMean, IC50
# [10] = 1 nM GSK3b, 2 μM ATP, 30 minute preincubation, geometric mean, read-out: GSK3-B TR-FRET BIOCHEMICAL (TR-FRET), GMean, IC50
# [11] = 1 nM GSK3α, 4 μM ATP, 30 minute preincubation, read-out: GSK3-A TR-FRET BIOCHEMICAL (TR-FRET), IC50
# [12] = 1 nM GSK3b, 2 μM ATP, 30 minute preincubation, read-out: GSK3-B TR-FRET BIOCHEMICAL (TR-FRET), IC50
# GSK3α (GST-full length GSK3α), sequence (P49840 whole entry): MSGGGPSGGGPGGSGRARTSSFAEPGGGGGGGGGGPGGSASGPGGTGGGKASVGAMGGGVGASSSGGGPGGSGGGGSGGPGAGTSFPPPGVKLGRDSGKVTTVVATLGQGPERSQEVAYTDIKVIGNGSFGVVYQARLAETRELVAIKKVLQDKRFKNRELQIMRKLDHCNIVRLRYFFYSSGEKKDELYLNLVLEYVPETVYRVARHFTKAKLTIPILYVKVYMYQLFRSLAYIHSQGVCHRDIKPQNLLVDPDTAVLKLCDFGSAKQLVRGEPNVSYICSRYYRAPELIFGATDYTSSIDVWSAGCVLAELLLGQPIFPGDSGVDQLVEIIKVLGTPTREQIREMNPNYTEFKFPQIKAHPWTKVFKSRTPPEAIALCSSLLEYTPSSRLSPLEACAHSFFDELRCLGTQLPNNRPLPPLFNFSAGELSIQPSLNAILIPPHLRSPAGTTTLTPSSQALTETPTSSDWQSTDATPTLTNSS
# GSK3b (GST-full length GSK3b), sequence (P49841 whole entry): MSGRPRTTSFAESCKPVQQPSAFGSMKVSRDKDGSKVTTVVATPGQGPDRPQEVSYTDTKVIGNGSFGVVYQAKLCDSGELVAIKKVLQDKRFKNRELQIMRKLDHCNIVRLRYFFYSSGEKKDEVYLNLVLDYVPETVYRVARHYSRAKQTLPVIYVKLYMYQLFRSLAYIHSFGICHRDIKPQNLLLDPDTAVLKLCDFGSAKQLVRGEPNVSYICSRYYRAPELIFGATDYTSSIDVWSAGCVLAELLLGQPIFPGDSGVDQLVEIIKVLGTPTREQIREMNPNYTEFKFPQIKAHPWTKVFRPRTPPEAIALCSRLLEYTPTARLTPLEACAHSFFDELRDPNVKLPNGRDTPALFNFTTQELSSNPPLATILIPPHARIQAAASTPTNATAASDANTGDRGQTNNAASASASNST
Compound,"IC50 [1, 5]","IC50 [2, 6]","IC50 [1, 9]","IC50 [2, 10]",other results
Cn1cc([C@H]2CC[C@@]3(CC2)C2=C(CC(C)(C)CC2=O)Nc2n[nH]cc23)cn1 [Compound 949322],–,–,–,–,"IC50 [1, 3]: 100 to 1000 nM; IC50 [2, 4]: 1000 to 5000 nM"
CCC1(c2cccc(-c3ccnc(C)c3)c2)C2=C(CC(C)(C)NC2=O)Nc2n[nH]c(C(F)F)c21 (stereo not shown) [Compound 950162],100 to 1000 nM,100 to 1000 nM,–,–,–
CC[C@]1(c2cccc(C(C)C)c2)C2=C(CC(C)(C)NC2=O)Nc2n[nH]c(C)c21 [Compound 949649],≤ 100 nM,≤ 100 nM,–,–,"IC50 [1, 7]: 100 to 1000 nM; IC50 [2, 8]: 1000 to 5000 nM"
Cc1ccc(S(=O)(=O)N2CCC3(CC2)C2=C(CC(C)(C)CC2=O)Nc2n[nH]cc23)cc1 [Compound 947459],–,–,–,–,"IC50 [1, 3]: ≤ 100 nM; IC50 [2, 4]: 100 to 1000 nM"
CCC1(c2cccc(C(F)(F)F)c2)C2=C(Nc3n[nH]cc31)C(C)(C)NC2=O (stereo not shown) [Compound 912104],–,–,–,–,"IC50 [1, 3]: ≤ 100 nM; IC50 [2, 4]: 100 to 1000 nM"
CCC1(c2cccc(-c3cnn(C4CC4(F)F)c3)c2)C2=C(CC(C)(C)NC2=O)Nc2n[nH]cc21 (stereo not shown) [Compound 949393],1000 to 5000 nM,> 5000 nM,–,–,–
CCC1(c2cccc(C(F)(F)F)c2)C2=C(CC(C)(C)CC2=O)Nc2n[nH]c(Br)c21 (stereo not shown) [Compound 810464],–,–,1000 to 5000 nM,1000 to 5000 nM,–
CCCn1nccc1-c1cccc(C2(CC)C3=C(CC(C)(C)CC3=O)Nc3n[nH]cc32)c1 (stereo not shown) [Compound 946093],–,–,–,–,"IC50 [1, 3]: ≤ 100 nM; IC50 [1, 7]: ≤ 100 nM; IC50 [2, 4]: ≤ 100 nM; IC50 [2, 8]: 100 to 1000 nM"
CC1(C)CC(=O)C2=C(C1)Nc1n[nH]cc1[C@@]21CCCc2c(-c3ccncc3)cccc21 [Compound 945547],–,–,–,–,"IC50 [1, 3]: 1000 to 5000 nM; IC50 [2, 4]: > 5000 nM"
CCC1(c2cccc(S(=O)(=O)Cc3ccccc3)c2)C2=C(CC(C)(C)CC2=O)Nc2n[nH]cc21 (stereo not shown) [Compound 913258],≤ 100 nM,≤ 100 nM,–,–,–
CC[C@@]1(c2cccc(N3CCOCC3)c2)C2=C(CC(C)(C)NC2=O)Nc2n[nH]c(C(F)(F)F)c21 [Compound 949013],–,–,≤ 100 nM,≤ 100 nM,–
CCC1(c2cccc(-c3ccnc4ccc(C)cc34)c2)C2=C(CC(C)(C)NC2=O)Nc2n[nH]cc21 (stereo not shown) [Compound 948651],–,–,> 5000 nM,> 5000 nM,–
CCC1(c2cccc(-c3ccncc3F)c2)C2=C(CC(C)(C)CC2=O)Nc2n[nH]c(C)c21 (stereo not shown) [Compound 913052],≤ 100 nM,≤ 100 nM,–,–,"IC50 [1, 7]: ≤ 100 nM; IC50 [2, 8]: 100 to 1000 nM"
CC[C@]1(c2cccc(-c3cnn(C)c3)c2)C2=C(CC(C)(C)NC2=O)Nc2n[nH]c(C(F)F)c21 [Compound 949911],100 to 1000 nM,> 5000 nM,–,–,–
CCC1(c2cccc(N3CCOc4ncccc43)c2)C2=C(CC(C)(C)CC2=O)Nc2n[nH]cc21 (stereo not shown) [Compound 932663],–,–,–,–,"IC50 [1, 3]: ≤ 100 nM; IC50 [2, 4]: ≤ 100 nM"
CC(=O)N1CCCC2(CC1)C1=C(CC(C)(C)CC1=O)Nc1n[nH]cc12 (stereo not shown) [Compound 889575],100 to 1000 nM,1000 to 5000 nM,–,–,–
CC1CC(C(=O)N2CC3(C2)CC2(CO3)C3=C(CC(C)(C)CC3=O)Nc3n[nH]cc32)C1 (stereo not shown) [Compound 947733],–,–,–,–,"IC50 [1, 11]: ≤ 100 nM; IC50 [2, 12]: ≤ 100 nM"
CC[C@@]1(c2cccc(-c3cnn(-c4ccccc4)c3F)c2)C2=C(CC(C)(C)NC2=O)Nc2n[nH]cc21 [Compound 949519],> 5000 nM,> 5000 nM,–,–,–
CCC1(c2cccc(-c3c(Cl)cncc3Cl)c2)C2=C(CC(C)(C)NC2=O)Nc2n[nH]cc21 (stereo not shown) [Compound 948515],–,–,≤ 100 nM,≤ 100 nM,"IC50 [1, 7]: ≤ 100 nM; IC50 [2, 8]: 100 to 1000 nM"
CCC1(c2cccc(S(=O)(=O)C3CC3)c2)C2=C(CC(C)(C)CC2=O)Nc2n[nH]cc21 (stereo not shown) [Compound 912171],–,–,–,–,"IC50 [1, 7]: ≤ 100 nM; IC50 [2, 8]: 100 to 1000 nM"
CC[C@@]1(c2cccc(C(F)(F)F)c2)C2=C(Nc3n[nH]cc31)[C@H](C)CNC2=O [Compound 945383],–,–,–,–,"IC50 [1, 11]: ≤ 100 nM; IC50 [2, 12]: 100 to 1000 nM"

Compound,"IC50 [1, 5]","IC50 [2, 6]","IC50 [1, 9]","IC50 [2, 10]",other results
CCC1(c2cccc(-c3ccnc4c3CCC4)c2)C2=C(CC(C)(C)NC2=O)Nc2n[nH]cc21 (stereo not shown) [Compound 947676],–,–,≤ 100 nM,100 to 1000 nM,–
CC[C@]1(c2ccccc2)C2=C(C[C@H](C)CC2=O)Nc2n[nH]cc21 [Compound 789011],–,–,> 5000 nM,> 5000 nM,–
CC[C@]1(c2cccc(C(F)(F)F)c2)C2=C(CCN(CCOC)C2=O)Nc2n[nH]cc21 [Compound 949600],> 5000 nM,> 5000 nM,–,–,–
CC(C)c1ccccc1S(=O)(=O)N1CCC2(CC1)C1=C(CC(C)(C)CC1=O)Nc1n[nH]cc12 [Compound 947473],–,–,–,–,"IC50 [1, 3]: 100 to 1000 nM; IC50 [2, 4]: 100 to 1000 nM"
CC[C@]1(c2cccc(-c3cnn(C)c3)c2)C2=C(CC(C)(C)NC2=O)Nc2n[nH]c(C(F)(F)F)c21 [Compound 947871],–,–,≤ 100 nM,100 to 1000 nM,–
CCC1(c2cccc(-c3ccncc3F)c2)C2=C(CC(C)(C)NC2=O)Nc2n[nH]c(F)c21 (stereo not shown) [Compound 948999],–,–,≤ 100 nM,100 to 1000 nM,–
CCC1(c2ccccc2)C2=C(CC3(CC3)CC2=O)Nc2n[nH]cc21 (stereo not shown) [Compound 789330],–,–,100 to 1000 nM,1000 to 5000 nM,–
CCC1(c2cccc(N(Cc3ccccc3)C(C)=O)c2)C2=C(CC(C)(C)CC2=O)Nc2n[nH]cc21 (stereo not shown) [Compound 884110],≤ 100 nM,≤ 100 nM,–,–,–
CC1(C)CC(=O)C2=C(C1)Nc1n[nH]cc1C21CCN(S(=O)(=O)c2ccc3ccccc3n2)CC1 [Compound 947476],–,–,–,–,"IC50 [1, 11]: ≤ 100 nM; IC50 [2, 12]: ≤ 100 nM"
CC[C@@]1(c2cccc(-c3cc(OC)nc4ccccc34)c2)C2=C(CC(C)(C)NC2=O)Nc2n[nH]cc21 [Compound 948647],–,–,> 5000 nM,> 5000 nM,–
CCC1(CC)C2=C(CC(C)(C)CC2=O)Nc2n[nH]cc21 [Compound 810505],1000 to 5000 nM,> 5000 nM,–,–,–
CCn1nccc1-c1cccc(C2(CC)C3=C(CC(C)(C)CC3=O)Nc3n[nH]cc32)c1 (stereo not shown) [Compound 929398],≤ 100 nM,≤ 100 nM,–,–,–
COc1ccc(S(=O)(=O)N2CCCC3(CC2)C2=C(CC(C)(C)CC2=O)Nc2n[nH]cc23)cc1 (stereo not shown) [Compound 917141],–,–,–,–,"IC50 [1, 3]: ≤ 100 nM; IC50 [2, 4]: 100 to 1000 nM"
CC[C@]1(c2cccc(-c3ccnc4cc(F)ccc34)c2)C2=C(CC(C)(C)NC2=O)Nc2n[nH]cc21 [Compound 948528],–,–,≤ 100 nM,100 to 1000 nM,–
CCC1(c2cccc(N3CCCCC3C)c2)C2=C(CC(C)(C)CC2=O)Nc2n[nH]cc21 (mixture of isomers) [Compound 885217],100 to 1000 nM,100 to 1000 nM,–,–,–
CC1(C)CC(=O)C2=C(C1)Nc1n[nH]cc1C21COC2(CN(C(=O)C3CCCC3)C2)C1 (stereo not shown) [Compound 917232],–,–,–,–,"IC50 [1, 11]: ≤ 100 nM; IC50 [2, 12]: ≤ 100 nM"
CCC1(c2cccc(Oc3ncccn3)c2)C2=C(CC(C)(C)NC2=O)Nc2n[nH]cc21 (stereo not shown) [Compound 948764],–,–,≤ 100 nM,100 to 1000 nM,–
Cc1nn(C)c(C)c1S(=O)(=O)N1CCC2(CC1)C1=C(CC(C)(C)CC1=O)Nc1n[nH]cc12 [Compound 947257],–,–,–,–,"IC50 [1, 3]: 100 to 1000 nM; IC50 [2, 4]: 1000 to 5000 nM"
CC1(C)CC(=O)C2=C(C1)Nc1n[nH]cc1C21CCN(S(=O)(=O)c2cnn3c2CCCC3)CC1 [Compound 947474],–,–,–,–,"IC50 [1, 3]: ≤ 100 nM; IC50 [2, 4]: ≤ 100 nM"
CC[C@@]1(c2cccc(C(F)F)c2)C2=C(CC(C)(C)CC2=O)Nc2n[nH]cc21 [Compound 826717],–,–,≤ 100 nM,≤ 100 nM,"IC50 [1, 7]: 100 to 1000 nM; IC50 [2, 8]: 1000 to 5000 nM"
CCCS(=O)(=O)c1cccc(C2(CC)C3=C(CC(C)(C)CC3=O)Nc3n[nH]cc32)c1 (stereo not shown) [Compound 917131],≤ 100 nM,≤ 100 nM,–,–,–
